Experiment [1] addresses T1, Cannabinoid receptor (Rattus norvegicus, UniProt Q9QZN9+P20272). The experiment can be described thus: Binding affinity towards cannabinoid receptor using [3H]CP-55940 as radioligand in rat brain membrane. Format: cell membranes.
Experiment [2] concerns the target T1, Cannabinoid receptor. Nature of the experiment: Binding affinity towards cannabinoid receptor using [3H]SR-141,716A as radioligand in rat brain membrane. Format: cell membranes.
The species named for experiment [3] is Mus musculus. Nature of the experiment: Maximal degree of inhibition of electrically evoked contractions in a mouse vas deferens assay. The format is functional.
The species named for experiment [4] is Mus musculus. Nature of the experiment: Effective concentration that causes twitch inhibition in a mouse vas deferens assay. The format is functional, organism-based.
The species entered for experiment [5] is Mus musculus. Nature of the experiment: Inhibition of spontaneous activity(SA) in mice was determined. Format: functional.
For experiment [6], the species on record is Mus musculus. The experiment can be described thus: Inhibition of tail flick response[…] in mice was determined. The format is functional.
For experiment [7], the species on record is Mus musculus. Nature of the experiment: Maximum possible effect for ring immobility (RI). The format is functional.
The species entered for experiment [8] is Mus musculus. The experiment can be described thus: Hypothermia measured as changes in rectal temperature (RT).
The species named for experiment [9] is Mus musculus. The experiment can be described thus: Inhibition of rectal temperature(RT) in mice was determined. The format is functional.
The species entered for experiment [10] is Mus musculus. Nature of the experiment: Inhibition of ring immobility(RI) in mice was determined. Format: functional.
The species entered for experiment [11] is Mus musculus. The experiment can be described thus: Maximum possible effect for antinociception as measured by the tail flick response (TF). The format is functional.
For experiment [12], the species on record is Mus musculus. Nature of the experiment: Maximum possible effect for inhibition of spontaneous activity (SA). Format: functional.

Turning to `CCCCCCC(C)(C)/C=C\C/C=C\C/C=C\C/C=C\CCCC(=O)NCCC`, the values for the Ki in experiment [1] and in experiment [2] were 1.5 nM and 31 nM, respectively. The Emax in experiment [3] was found to be 65.3%. In experiment [4], this compound registered an EC50 of 11.7 nM. Further, the values for the ED50 in experiment [5] and in experiment [6] were 1.2 mg/kg and 6.3 mg/kg, respectively. In experiment [7], this compound displayed an MPE of 81%. The compound further had a rectal temperature change in experiment [8] of -1.5 °C.
For `CCCCCCC(C)(C)/C=C\C/C=C\C/C=C\C/C=C\CCCC(=O)N[C@@H](C)CO`, the results for the Ki in experiment [1] and in [2] were 5 nM and 161 nM, respectively. For the same compound, in experiment [3], the Emax is 67.2%. The ED50 in experiment [9] stood at 5 mg/kg; in experiment [10], 2.5 mg/kg; in experiment [5], 2.6 mg/kg; in [6] it was 4.8 mg/kg. Also, a half-maximal response in experiment [4] (EC50) required 28.3 nM. For the same compound, the MPE in experiment [11] turned out to be 100%; in experiment [12] it was 90%; in experiment [7] it was 80%. This compound also had a rectal temperature change in [8] of -2 °C.
Regarding `CCCCC/C=C\C/C=C\C/C=C\C/C=C\CCCC(=O)NCCC`, the Ki in experiment [1] was 2.6 nM; in experiment [2], 238 nM. The Emax in experiment [3] stood at 51.2%. The compound also showed an EC50 in experiment [4] of 10.9 nM.
Turning to `CCCCC/C=C\C/C=C\C/C=C\C/C=C\CCCC(=O)N[C@H](C)CO` [METHANANDAMIDE], the Emax in [3] came to 100%. Besides, the EC50 in experiment [4] turned out to be 10.1 nM.
Consider `CCCCCCC(C)(C)/C=C\C/C=C\C/C=C\C/C=C\CCCC(=O)NCCOC`, for which the Ki is recorded as 3.9 nM in [1] and 54 nM in experiment [2]. For the same compound, in experiment [3], the Emax was 44.6%. The figures for the median effective dose (ED50) in experiment [10], in experiment [5] and in experiment [6] were 5.7 mg/kg, 4 mg/kg and 13.3 mg/kg, respectively. In experiment [4], the EC50 is 36 nM. Besides, the MPE in experiment [11] stood at 100%; in [12] it was 98%; in experiment [7], 86%. In addition, in [8], the rectal temperature change is -1.5 °C.
For the compound `CCCCCCC(C)(C)/C=C\C/C=C\C/C=C\C/C=C\CCCC(=O)N[C@H](C)CO`, the Ki was 1.7 nM in experiment [1] and 220 nM in experiment [2]. In addition, the Emax in experiment [3] turned out to be 65.2%. Besides, the ED50 was 6 mg/kg in experiment [9], 2.4 mg/kg in experiment [10], 1.1 mg/kg in experiment [5] and 1 mg/kg in [6]. This compound gave an EC50 in experiment [4] of 60.6 nM. Besides, the MPE is given as 100% in [11], 95% in [12] and 85% in experiment [7]. For the same compound, the rectal temperature change in experiment [8] was -2.8 °C.
`CCCCC/C=C\C/C=C\C/C=C\C/C=C\CCCC(=O)NC[C@H](C)O` gave a Ki in [1] of 57 nM. Further, the Emax in experiment [3] stood at 71.7%. Besides, the EC50 in experiment [4] amounted to 36.1 nM.
For `CCCCC/C=C\C/C=C\C/C=C\C/C=C\CCCC(=O)NCCOC`, the Ki in [1] turned out to be 44 nM; in experiment [2] it was 466 nM. The Emax in experiment [3] stood at 34%. Moreover, the EC50 in [4] came to 3 nM.
In the case of `CCCCCCC(C)(C)/C=C\C/C=C\C/C=C\C/C=C\CCCC(=O)NCCO`, the inhibitory constant (Ki) was determined as 1.9 nM in [1] and 153 nM in [2]. In experiment [3], this compound came in with a maximal effect (Emax) of 68.3%. In addition, the ED50 in experiment [9] turned out to be 2.9 mg/kg; in experiment [10], 1 mg/kg; in experiment [5] it was 1.5 mg/kg; in experiment [6], 1.7 mg/kg. This compound also came in with a concentration giving a half-maximal response (EC50) in [4] of 59.7 nM. Besides, the results for the MPE in [11], in experiment [12] and in experiment [7] were 91%, 90% and 74%, respectively. Moreover, in [8], the rectal temperature change was -3.5 °C.
Regarding `CCCCC/C=C\C/C=C\C/C=C\C/C=C\CCCC(=O)NCCO` [ANANDAMIDE], in [3], the Emax was determined as 100%. This compound returned an EC50 in experiment [4] of 52.7 nM. This compound also gave an ED50 in [6] of 6.2 mg/kg.

In general, Ki refers to a measure of affinity in units of concentration, obtained from inhibition or displacement. Low values mean higher affinity, high ones lower affinity. As usually defined, the Emax is the maximal effect, on the per cent scale that the assay sets. A word on the EC50: it is the concentration giving half of the maximal effect. Read a high EC50 as a need for much substance. As a reminder, the ED50 is the dose at which the effect has come halfway, by size or by number of responders.

Source of the values: ChEMBL document CHEMBL1130399 (J Med Chem, 1997).
